Measurements reported in PubChem BioAssay (NCI).
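All cell lines were grown in 96-well plates and treated with compound for 48 hours. GI50: concentration for 50% inhibition of growth. TGI marks complete inhibition of growth.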

What was measured:
Assay in all cases: NCI anticancer screen, dose series, 48 h; in the data active means GI50 below about 0.43 µM; inactive means the rest
TK-10 renal = system: TK-10 renal
SN12C renal = system: SN12C renal
MDA-MB-231 breast = system: MDA-MB-231 breast
OVCAR-3 ovarian = system: OVCAR-3 ovarian
PC-3 prostate = system: PC-3 prostate
HCT-116 colon = system: HCT-116 colon
BT-549 breast = system: BT-549 breast
MDA-MB-435 = system: MDA-MB-435
CCRF-CEM leukemia = system: CCRF-CEM leukemia
A498 renal = system: A498 renal
RPMI-8226 leukemia = system: RPMI-8226 leukemia
UACC-257 melanoma = system: UACC-257 melanoma
KM12 colon = system: KM12 colon
RXF 393 renal = system: RXF 393 renal
NCI-H23 lung = system: NCI-H23 lung
HCC-2998 colon = system: HCC-2998 colon
SW-620 colon = system: SW-620 colon
OVCAR-4 ovarian = system: OVCAR-4 ovarian
CAKI-1 renal = system: CAKI-1 renal
HL-60(TB) leukemia = system: HL-60(TB) leukemia
ACHN renal = system: ACHN renal
MCF7 breast = system: MCF7 breast
SNB-19 CNS = system: SNB-19 CNS
IGROV1 ovarian = system: IGROV1 ovarian
SR leukemia = system: SR leukemia
MOLT-4 leukemia = system: MOLT-4 leukemia
UACC-62 melanoma = system: UACC-62 melanoma
NCI-H226 lung = system: NCI-H226 lung
HT29 colon = system: HT29 colon
DU-145 prostate = system: DU-145 prostate
SK-MEL-5 melanoma = system: SK-MEL-5 melanoma
NCI/ADR-RES ovarian = system: NCI/ADR-RES ovarian
UO-31 renal = system: UO-31 renal
SF-268 CNS = system: SF-268 CNS
A549 NSCLC = system: A549 NSCLC
OVCAR-8 ovarian = system: OVCAR-8 ovarian
LOX IMVI melanoma = system: LOX IMVI melanoma
786-0 renal = system: 786-0 renal
OVCAR-5 ovarian = system: OVCAR-5 ovarian
SNB-75 CNS = system: SNB-75 CNS
K-562 leukemia = system: K-562 leukemia
T-47D breast = system: T-47D breast
COLO 205 colon = system: COLO 205 colon
NCI-H522 lung = system: NCI-H522 lung
EKVX NSCLC = system: EKVX NSCLC
M14 melanoma = system: M14 melanoma
NCI-H460 lung = system: NCI-H460 lung
SK-MEL-28 melanoma = system: SK-MEL-28 melanoma
U251 CNS = system: U251 CNS
HS 578T breast = system: HS 578T breast
HCT-15 colon = system: HCT-15 colon
SF-539 CNS = system: SF-539 CNS
MALME-3M melanoma = system: MALME-3M melanoma
HOP-62 NSCLC = system: HOP-62 NSCLC
HOP-92 NSCLC = system: HOP-92 NSCLC
SK-MEL-2 melanoma = system: SK-MEL-2 melanoma

CC(C)c1ccc(C(=O)Nc2nc3ccc(O)cc3s2)cc1
29.5 µM: TGI (LOX IMVI melanoma)
51.4 µM: TGI (OVCAR-3 ovarian)
20.2 µM: TGI (HL-60(TB) leukemia)
48.2 µM: TGI (MCF7 breast)
active: GI50 (CCRF-CEM leukemia) 0.318 µM | GI50 (KM12 colon) 0.262 µM | GI50 (HCC-2998 colon) 0.371 µM | GI50 (ACHN renal) 0.304 µM | GI50 (IGROV1 ovarian) 0.361 µM | GI50 (MOLT-4 leukemia) 0.246 µM | GI50 (UACC-62 melanoma) 0.124 µM | GI50 (UO-31 renal) 0.35 µM | GI50 (LOX IMVI melanoma) 0.2 µM | GI50 (K-562 leukemia) 0.298 µM | GI50 (M14 melanoma) 0.167 µM | GI50 (HCT-15 colon) 0.274 µM
1.81 µM: TGI (HCC-2998 colon)
10.9 µM: TGI (NCI-H460 lung)
80.2 µM: TGI (OVCAR-4 ovarian)
inactive: GI50 (TK-10 renal) 8.98 µM | GI50 (SN12C renal) 2.18 µM | GI50 (MDA-MB-231 breast) 1.97 µM | GI50 (OVCAR-3 ovarian) 1.36 µM | GI50 (PC-3 prostate) 3.23 µM | GI50 (HCT-116 colon) 0.468 µM | GI50 (BT-549 breast) 2.8 µM | GI50 (MDA-MB-435) 0.443 µM | GI50 (A498 renal) 2.2 µM | GI50 (RPMI-8226 leukemia) 2.74 µM | GI50 (UACC-257 melanoma) 1.51 µM | GI50 (RXF 393 renal) 2.6 µM | GI50 (NCI-H23 lung) 3.52 µM | GI50 (SW-620 colon) 0.552 µM | GI50 (OVCAR-4 ovarian) 0.873 µM | GI50 (CAKI-1 renal) 0.845 µM | GI50 (HL-60(TB) leukemia) 0.481 µM | GI50 (MCF7 breast) 0.442 µM | GI50 (SNB-19 CNS) 8.27 µM | GI50 (SR leukemia) 0.715 µM | GI50 (NCI-H226 lung) 5.16 µM | GI50 (HT29 colon) 3.38 µM | GI50 (DU-145 prostate) 1.7 µM | GI50 (SK-MEL-5 melanoma) 0.535 µM | GI50 (NCI/ADR-RES ovarian) 0.948 µM | GI50 (SF-268 CNS) 4.06 µM | GI50 (A549 NSCLC) 2.33 µM | GI50 (OVCAR-8 ovarian) 1.48 µM | GI50 (786-0 renal) 0.866 µM | GI50 (OVCAR-5 ovarian) 7.68 µM | GI50 (SNB-75 CNS) 9.18 µM | GI50 (T-47D breast) 0.715 µM | GI50 (COLO 205 colon) 3.58 µM | GI50 (NCI-H522 lung) 0.693 µM | GI50 (EKVX NSCLC) 2.34 µM | GI50 (NCI-H460 lung) 0.47 µM | GI50 (SK-MEL-28 melanoma) 0.628 µM | GI50 (U251 CNS) 9.32 µM | GI50 (HS 578T breast) 11.4 µM | GI50 (SF-539 CNS) 1.22 µM | GI50 (MALME-3M melanoma) 0.684 µM | GI50 (HOP-62 NSCLC) 1.74 µM | GI50 (HOP-92 NSCLC) 5.18 µM | GI50 (SK-MEL-2 melanoma) 18 µM
6.09 µM: TGI (786-0 renal)
11.6 µM: TGI (SF-539 CNS)
55 µM: TGI (HOP-92 NSCLC)
17.8 µM: TGI (HT29 colon)
73.2 µM: TGI (SNB-75 CNS)
13.9 µM: TGI (RXF 393 renal)
46.5 µM: TGI (M14 melanoma)
> 100 µM: TGI (TK-10 renal) | TGI (SN12C renal) | TGI (MDA-MB-231 breast) | TGI (PC-3 prostate) | TGI (HCT-116 colon) | TGI (BT-549 breast) | TGI (MDA-MB-435) | TGI (CCRF-CEM leukemia) | TGI (RPMI-8226 leukemia) | TGI (UACC-257 melanoma) | TGI (KM12 colon) | TGI (NCI-H23 lung) | TGI (SW-620 colon) | TGI (CAKI-1 renal) | TGI (ACHN renal) | TGI (SNB-19 CNS) | TGI (IGROV1 ovarian) | TGI (MOLT-4 leukemia) | TGI (UACC-62 melanoma) | TGI (DU-145 prostate) | TGI (SK-MEL-5 melanoma) | TGI (NCI/ADR-RES ovarian) | TGI (UO-31 renal) | TGI (SF-268 CNS) | TGI (A549 NSCLC) | TGI (OVCAR-8 ovarian) | TGI (OVCAR-5 ovarian) | TGI (T-47D breast) | TGI (COLO 205 colon) | TGI (NCI-H522 lung) | TGI (EKVX NSCLC) | TGI (SK-MEL-28 melanoma) | TGI (U251 CNS) | TGI (HS 578T breast) | TGI (HCT-15 colon) | TGI (MALME-3M melanoma) | TGI (HOP-62 NSCLC) | TGI (SK-MEL-2 melanoma)
28.6 µM: TGI (K-562 leukemia)
9.91 µM: TGI (A498 renal)
68.7 µM: TGI (SR leukemia)
50.4 µM: TGI (NCI-H226 lung)
